According to US7381841B2, “Pentafluorosulfanylphenyl-substituted benzoylguanidines, processes for their preparation, their use as medicament or diagnostic aid, and medicament comprising them” (Sanofi-Aventis Deutschland GmbH, priority 2003, dated 2008):

Columns and labels:
[1] = In vivo pharmacokinetics, profiling with the "n in one method"; details: iv; fasting male beagle dog, single i.v. bolus into jugular vein, about 1 mg/kg of each substance, given together, plasma; read-out: Half-life t½ (converted)
Procedure: In vivo pharmacokinetics—profiling with the “n in one method”
The exposure data and the half-life were determined as characteristic follows:
Two NHE-1 inhibiotors of the invention (example 1 and example 9) and a known NHE-1 reference subtance (cariporide)
[drawing 36] where dissolved in the slightly acidic aqueous medium (water, pH 4, adjusted with 1 M hydrochloric acid). The concentration of the aqueous formulation prepared in this way was about 1.5 mg of each substance per 1 g of solution. 10 ml of this formulation were administered once as bolus by means of a catheter into the jugular vein of a fasting male beagle dog (dose about 1 mg of each administered substance per kg of the dog's body weight). Blood samples were obtained by means of a second catheter after 5 min, 15 min, 30 min, 1 h, 2 h, 4 h, 8 h and 24 h, and heparinized plasma was prepared by centrifugation at 1000 G in appropriate plasma tubes.
The plasma samples were worked up and quantified by MS/MS after an HPLC separation. Simultaneous determination of a plurality of substances was possible with this method owing to its high specificity. The half-lives could be calculated using the WinNonlin computer program from the concentration-time plots (see FIG. 1) and compared with the half-life of the known NHE-1 reference substance. Since the various substances were measured in the same animal at the same time, the result was an accurate comparison of the compounds, and a ranking of the half-lives was possible.

human NHE-1 = target: T1, human NHE-1 (Homo sapiens, UniProt P19634); assay: NHE-1 inhibition, FLIPR assay measuring recovery of pHi in transfected cell lines; format: cell-based; details: pHi recovery in transfected LAP-1 cell lines expressing human NHE-1, read-out: NHE1 inhibition IC50
T1 construct: expressed in transfected cells; host or cells: LAP-1 (parental cell line without endogenous NHE activity), G418-selected transfectants
T1 sequence (P19634 whole entry): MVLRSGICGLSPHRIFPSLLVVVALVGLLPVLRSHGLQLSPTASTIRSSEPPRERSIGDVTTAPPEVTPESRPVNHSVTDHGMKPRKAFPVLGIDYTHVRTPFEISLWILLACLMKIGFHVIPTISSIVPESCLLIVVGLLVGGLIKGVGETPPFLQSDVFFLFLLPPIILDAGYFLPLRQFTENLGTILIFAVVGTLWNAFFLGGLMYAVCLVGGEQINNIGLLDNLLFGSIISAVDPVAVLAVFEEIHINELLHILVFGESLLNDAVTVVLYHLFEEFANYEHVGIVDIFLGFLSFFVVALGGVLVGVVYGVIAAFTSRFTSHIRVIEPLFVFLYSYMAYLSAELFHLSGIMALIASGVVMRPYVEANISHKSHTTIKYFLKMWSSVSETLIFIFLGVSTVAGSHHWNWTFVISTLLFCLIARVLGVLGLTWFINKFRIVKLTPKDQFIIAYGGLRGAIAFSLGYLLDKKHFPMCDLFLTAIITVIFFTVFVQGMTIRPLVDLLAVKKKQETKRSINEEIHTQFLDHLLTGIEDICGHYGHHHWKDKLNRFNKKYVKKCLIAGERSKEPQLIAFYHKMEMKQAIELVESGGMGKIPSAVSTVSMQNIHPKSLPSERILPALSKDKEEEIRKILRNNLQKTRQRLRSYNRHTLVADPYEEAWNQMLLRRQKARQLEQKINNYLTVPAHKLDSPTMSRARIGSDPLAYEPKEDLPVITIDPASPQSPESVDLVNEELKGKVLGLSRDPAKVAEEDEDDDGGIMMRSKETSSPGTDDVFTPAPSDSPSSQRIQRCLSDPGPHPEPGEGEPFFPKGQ
Procedure: The NHE-1 inhibition IC50 was determined in an FLIPR assay by measurement of the recovery in pHi in transfected cell lines which express human NHE-1.
The assay was carried out in an FLIPR (fluorescent imaging plate reader) with black-walled 96-well microtiter plates with clear bases.
The growth medium for the transfected cells (Iscove+10% fetal calf serum) additionally contained G418 as selection antibiotic in order to ensure the presence of the transfected sequences.
The actual assay started with the removal of the growth medium and addition of 100 μl of loading buffer per well (5 μM BCECF-AM [2′,7′-bis(carboxyethyl)-5- (and -6-)carboxyfluorescein, acetoxymethyl ester] in 20 mM NH4Cl, 115 mM choline chloride, 1 mM MgCI2, 1 mM CaCI2, 5 mM KCI, 20 mM HEPES, 5 mM glucose; pH 7.4 [adjusted with KOH]). The cells were then incubated at 37° C. for 20 minutes. This incubation led to loading of the cells with the fluorescent dye whose fluorescence intensity depends on pHi, and with NH4Cl which makes the cells slightly alkaline. The nonfluorescent dye precursor BCECF-AM is, as ester, membrane-permeable. The actual dye BCECF is not membrane-permeable but is liberated inside cells by esterases.
After this incubation for 20 minutes, the loading buffer which contained NH4Cl and free BCECF-AM was removed by washing three times in a cell washer (Tecan Columbus) with in each case 400 μl of washing buffer (133.8 mM choline chloride, 4.7 mM KCI, 1.25 mM MgCI2, 1.25 mM CaCI2, 0.97 mM K2HPO4, 0.23 mM KH2PO4, 5 mM HEPES, 5 mM glucose; pH 7.4 [adjusted with KOH]). The residual volume remaining in the wells was 90 μl (50-125 μl possible). This washing step removed the free BCECF-AM and resulted, as a consequence of the removal of the external NH4^+ ions, in intracellular acidification (˜pHi 6.3-6.4).
This may eventually lead to cell death if it persists long enough.
It was important at this point that the washing buffer was sodium-free (<1 mM) because extracellular sodium ions would lead to an instantaneous recovery of the pHi through the activity of the cloned NHE isoforms.
It was likewise important for all the buffers used (loading buffer, washing buffer, recovery buffer) not to contain any HCO3^− ions, because the presence of bicarbonate would lead to activation of interfering bicarbonate-dependent pHi regulatory systems present in the parental LAP-1 cell line.
The microtiter plates with the acidified cells were then (up to 20 minutes after the acidification) transferred to the FLIPR. In the FLIPR, the intracellular fluorescent dye was excited by light with a wavelength of 488 nm generated by an argon laser, and the measured parameters (laser power, illumination time and aperture of the CCD camera incorporated in the FLIPR) were chosen so that the average fluorescence signal per well was between 30 000 and 35 000 relative fluorescence units.
The actual measurement in the FLIPR started with a photograph being taken by the CCD camera every two seconds under software control. After ten seconds, the recovery of the intracellular pH was initiated by adding 90 μl of recovery buffer (133.8 mM NaCl, 4.7 mM KCI, 1.25 mM MgCI2, 1.25 mM CaCI2, 0.97 mM K2HPO4, 0.23 mM KH2PO4, 10 mM HEPES, 5 mM glucose; pH 7.4 [adjusted with NaOH]) by means of the 96-well pipettor incorporated in the FLIPR.
Positive control wells (100% NHE activity) were those to which pure recovery buffer was added, while negative controls (0% NHE activity) received washing buffer. Recovery buffer with twice the concentration of test substance was added to all the other wells. Measurement in the FLIPR terminated after 60 measurements (two minutes).
The raw data are exported into the ActivityBase program. This program firstly calculates the NHE activities for each tested substance concentration and, from these, the IC50 values for the substances. […]

Row | half-life [1] | IC50 (human NHE-1) | melting point | SMILES
1 | 20.2 h | 3.9 nM | 166 to 168 °C | Cc1cc(Oc2cccc(S(F)(F)(F)(F)F)c2)c(S(C)(=O)=O)cc1C(=O)N=C(N)N [Example 1, N-[5-Methanesulfonyl-2-methyl-4-(3-pentafluorosulfanylphenoxy)-benzoyl]guanidine]
2 |  | 1.9 nM |  | Cc1cc(Oc2ccc(S(F)(F)(F)(F)F)cc2)c(S(C)(=O)=O)cc1C(=O)N=C(N)N [Example 2, N-[5-Methanesulfonyl-2-methyl-4-(4-pentafluorosulfanylphenoxy)-benzoyl]guanidine]
3 |  | 4.7 nM |  | Cc1cc(Sc2ccc(S(F)(F)(F)(F)F)cc2)c(S(C)(=O)=O)cc1C(=O)N=C(N)N [Example 3, N-[5-Methanesulfonyl-2-methyl-4-(4-pentafluorosulfanylphenylsulfanyl)benzoyl]-guanidine]
4 |  | 4670 nM |  | Cc1cc(S(=O)(=O)c2ccc(S(F)(F)(F)(F)F)cc2)c(S(C)(=O)=O)cc1C(=O)N=C(N)N [Example 4, N-[5-Methanesulfonyl-2-methyl-4-(4-pentafluorosulfanylphenylsulfonyl)-benzoyl]guanidine]
5 |  | 6.4 nM |  | Cc1cc(Nc2cccc(S(F)(F)(F)(F)F)c2)c(S(C)(=O)=O)cc1C(=O)N=C(N)N [Example 5, N-[5-Methanesulfonyl-2-methyl-4-(3-pentafluorosulfanylphenylamino)-benzoyl]guanidine]
6 |  | 27.1 nM |  | Cc1cc(Nc2ccc(S(F)(F)(F)(F)F)cc2)c(S(C)(=O)=O)cc1C(=O)N=C(N)N [Example 6, N-[5-Methanesulfonyl-2-methyl-4-(4-pentafluorosulfanylphenyl-amino)benzoyl]guanidine]
7 |  | 14.5 nM |  | Cc1cc(N(C)c2cccc(S(F)(F)(F)(F)F)c2)c(S(C)(=O)=O)cc1C(=O)N=C(N)N [Example 7, N-{5-Methanesulfonyl-2-methyl-4-[methyl-(3-pentafluorosulfanylphenyl)-amino]benzoyl}guanidine]
8 |  | 3.7 nM |  | Cc1cc(N(C)c2ccc(S(F)(F)(F)(F)F)cc2)c(S(C)(=O)=O)cc1C(=O)N=C(N)N [Example 8, N-{5-Methanesulfonyl-2-methyl-4-[methyl-(4-pentafluorosulfanyl-phenyl)amino]benzoyl}guanidine]
9 | 39.9 h | 2.1 nM | 238 to 240 °C | Cc1cc(-c2ccc(S(F)(F)(F)(F)F)cc2)c(S(C)(=O)=O)cc1C(=O)N=C(N)N [Example 9, N-(2-Methanesulfonyl-5-methyl-4′-pentafluorosulfanylbiphenyl-4-carbonyl)guanidine]
10 |  | 38.8 nM | 169 to 175 °C | Cc1cc(-c2cccc(S(F)(F)(F)(F)F)c2)c(S(C)(=O)=O)cc1C(=O)N=C(N)N [Example 10, N-(2-Methanesulfonyl-5-methyl-3′-pentafluorosulfanylbiphenyl-4-carbonyl)guanidine]
11 |  | 81.5 nM |  | Cc1cc(-c2ccc(S(F)(F)(F)(F)F)cc2C)c(S(C)(=O)=O)cc1C(=O)N=C(N)N [Example 11, N-(2-Methanesulfonyl-5,2′-dimethyl-4′-pentafluorosulfanylbiphenyl-4-carbonyl)guanidine]
12 | 4.1 h |  |  | CC(C)c1ccc(C(=O)N=C(N)N)cc1S(C)(=O)=O.CS(=O)(=O)O [cariporide, reference compound]
